A word on the IC50: it is the midpoint of a concentration-inhibition curve.

T1 sequence (Q9NZQ7 with tags, fused parts or gaps): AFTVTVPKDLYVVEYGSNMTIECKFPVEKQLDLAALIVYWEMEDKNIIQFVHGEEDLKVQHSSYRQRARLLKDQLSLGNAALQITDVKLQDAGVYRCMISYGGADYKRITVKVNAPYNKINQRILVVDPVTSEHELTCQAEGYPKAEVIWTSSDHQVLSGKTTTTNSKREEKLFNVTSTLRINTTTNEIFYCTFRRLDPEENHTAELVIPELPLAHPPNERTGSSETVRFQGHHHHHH

The first assay concerns the target T1, PD-1/PD-L1 (Homo sapiens, UniProt Q9NZQ7).
T1 construct: made in house; host or cells: HEK293T
The assay is described as follows: PD-1/PD-L1 Homogenous Time-Resolved Fluorescence (HTRF) binding assay. The settings on record: PD-L1-His 10 nM, PD-1-Ig 20 nM; numeric IC50; read-out: Range or IC50. The essentials:
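Binding measured in dPBS with 0.1% BSA and 0.05% Tween-20, detected by HTRF with europium cryptate anti-Ig (1 nM final) and APC anti-His (20 nM final) added over the binding reaction. Counter-assays used human PD-1-Ig/PD-L2-His (20 and 5 nM) and CD80-His/PD-L1-Ig (100 and 10 nM).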
In general terms: Time-resolved FRET reads energy transfer from a long-lived donor to a nearby acceptor.
On to `CC(=O)N[C@H]1CCN(CCCOc2cccc(-c3c(Cl)ccc(COc4cc(OCc5cncc(C#N)c5)c(CNC(C)(CO)CO)cc4Cl)c3Cl)c2C)C1` [Example 2094, N-((3S)-1-(3-((2′,6′-dichloro-3′-((2-chloro-5-((5-cyanopyridin-3-yl)methoxy)-4-(((1,3-dihydroxy-2-methylpropan-2-yl)amino)methyl)phenoxy)methyl)-2-methyl-[1,1′-biphenyl]-3-yl)oxy)propyl)pyrrolidin-3-yl)acetamide], for which the IC50 came to 6 nM.

The same assay, now with this note: PD-L1-His 10 nM, PD-1-Ig 20 nM; value given as range class; read-out: Range or IC50.
On to `Cc1c(COc2cc(OCc3cncc(C#N)c3)c(CNC(C)(CO)CO)cc2Cl)cccc1-c1cccc(OCC(CO)(CO)CO)c1Cl` [Example 2085, 5-((4-chloro-5-((2′-chloro-3′-(3-hydroxy-2,2-bis(hydroxymethyl)propoxy)-2-methyl-[1,1′-biphenyl]-3-yl)methoxy)-2-(((1,3-dihydroxy-2-methylpropan-2-yl)amino)methyl)phenoxy)methyl)nicotinonitrile], for which the half-maximal inhibitory concentration (IC50) was 0.21 to 10 nM.

In the case of `Cc1c(COc2cc(OCc3cncc(C#N)c3)c(CNC(C)(CO)CO)cc2Cl)cccc1-c1cccc(OCC(O)CN2CC[C@@H](O)C2)c1Cl` (stereo partly drawn) [Example 2086, 5-((4-chloro-5-((2′-chloro-3′-(2-hydroxy-3-((R)-3-hydroxypyrrolidin-1-yl)propoxy)-2-methyl-[1,1′-biphenyl]-3-yl)methoxy)-2-(((1,3-dihydroxy-2-methylpropan-2-yl)amino)methyl)phenoxy)methyl)nicotinonitrile], the IC50 lay within 0.21 to 10 nM.

Consider `Cc1c(COc2cc(OCc3cncc(C#N)c3)c(CNC(C)(CO)CO)cc2Cl)cccc1-c1cccc(OCCCNC(=O)C(O)CO)c1Cl` (centres unmarked) [Example 2088, N-(3-((2-chloro-3′-((2-chloro-5-((5-cyanopyridin-3-yl)methoxy)-4-(((1,3-dihydroxy-2-methylpropan-2-yl)amino)methyl)phenoxy)methyl)-2′-methyl-[1,1′-biphenyl]-3-yl)oxy)propyl)-2,3-dihydroxypropanamide], for which the IC50 lay in the range of 0.21 to 10 nM.

For the compound `Cc1c(COc2cc(OCc3cncc(C#N)c3)c(CNC(C)(CO)CO)cc2Cl)cccc1-c1cccc(OCCCNC(=O)Cc2ccccn2)c1Cl` [Example 2089, N-(3-((2-chloro-3′-((2-chloro-5-((5-cyanopyridin-3-yl)methoxy)-4-(((1,3-dihydroxy-2-methylpropan-2-yl)amino)methyl)phenoxy)methyl)-2′-methyl-[1,1′-biphenyl]-3-yl)oxy)propyl)-2-(pyridin-2-yl)acetamide], the IC50 is 0.21 to 10 nM.

Turning to `Cc1c(COc2cc(OCc3cncc(C#N)c3)c(CNC(C)(CO)CO)cc2Cl)cccc1-c1cccc(CNCCN2CCOCC2)c1Cl` [Example 2092, 5-((4-chloro-5-((2′-chloro-2-methyl-3′-(((2-morpholinoethyl)amino)methyl)-[1,1′-biphenyl]-3-yl)methoxy)-2-(((1,3-dihydroxy-2-methylpropan-2-yl)amino)methyl)phenoxy)methyl)nicotinonitrile], the IC50 fell in the range of 0.21 to 10 nM.

As to `Cc1c(OCCCN2CC[C@@H](O)C2)cccc1-c1c(Cl)ccc(COc2cc(OCc3cncc(C#N)c3)c(CNC(C)(CO)CO)cc2Cl)c1Cl` [Example 2093, 5-((4-chloro-5-((2,6-dichloro-3′-(3-((R)-3-hydroxypyrrolidin-1-yl)propoxy)-2′-methyl-[1,1′-biphenyl]-3-yl)methoxy)-2-(((1,3-dihydroxy-2-methylpropan-2-yl)amino)methyl)phenoxy)methyl)nicotinonitrile], the IC50 was 0.21 to 10 nM.

Take `Cc1c(COc2cc(OCc3cncc(C#N)c3)c(CNC(C)(CO)CO)cc2Cl)cccc1-c1cccc(OCCCNC[C@H](O)CO)c1Cl` [Example 2097, (S)-5-((4-chloro-5-((2′-chloro-3′-(3-((2,3-dihydroxypropyl)amino)propoxy)-2-methyl-[1,1′-biphenyl]-3-yl)methoxy)-2-(((1,3-dihydroxy-2-methylpropan-2-yl)amino)methyl)phenoxy)methyl)nicotinonitrile]: the IC50 was 0.21 to 10 nM.

Regarding `Cc1c(COc2cc(OCc3cncc(C#N)c3)c(CNC(C)(CO)CO)cc2Cl)cccc1-c1cccc(OCCCN2CCCC(CO)C2)c1Cl` (centres unmarked) [Example 2098, 5-((4-chloro-5-((2′-chloro-3′-(3-(3-(hydroxymethyl)piperidin-1-yl)propoxy)-2-methyl-[1,1′-biphenyl]-3-yl)methoxy)-2-(((1,3-dihydroxy-2-methylpropan-2-yl)amino)methyl)phenoxy)methyl)nicotinonitrile], the IC50 lay within 0.21 to 10 nM.

With `Cc1c(COc2cc(OCc3cncc(C(=N)N4CCCC(CO)C4)c3)c(CNC(C)(CO)CO)cc2Cl)cccc1-c1cccc(OCCCN2CCCC(CO)C2)c1Cl` (centres unmarked) [Example 2099, 2-((5-chloro-4-((2′-chloro-3′-(3-(3-(hydroxymethyl)piperidin-1-yl)propoxy)-2-methyl-[1,1′-biphenyl]-3-yl)methoxy)-2-((5-((3-(hydroxymethyl)piperidin-1-yl)(imino)methyl)pyridin-3-yl)methoxy)benzyl)amino)-2-methylpropane-1,3-diol], the concentration for half-maximal inhibition (IC50) lay in the range of 0.21 to 10 nM.

Consider `N=C(c1cncc(COc2cc(OCc3cccc(-c4cccc(OCCCN5CC[C@@H](O)C5)c4Cl)c3Cl)c(Cl)cc2CNC[C@H](O)CO)c1)N1CC[C@@H](O)C1` [Example 2101, (S)-3-((5-chloro-4-((2,2′-dichloro-3′-(3-((R)-3-hydroxypyrrolidin-1-yl)propoxy)-[1,1′-biphenyl]-3-yl)methoxy)-2-((5-(((R)-3-hydroxypyrrolidin-1-yl)(imino)methyl)pyridin-3-yl)methoxy)benzyl)amino)propane-1,2-diol], for which the IC50 is 0.21 to 10 nM.

Take `Cc1c(COc2cc(OCc3cncc(C#N)c3)c(CNC(C)(CO)CO)cc2Cl)cccc1-c1cccc(OCCCNC(C)(CO)CO)c1Cl` [Example 2102, 5-((4-chloro-5-((2′-chloro-3′-(3-((1,3-dihydroxy-2-methylpropan-2-yl)amino)propoxy)-2-methyl-[1,1′-biphenyl]-3-yl)methoxy)-2-(((1,3-dihydroxy-2-methylpropan-2-yl)amino)methyl)phenoxy)methyl)nicotinonitrile]: the IC50 is 0.21 to 10 nM.

As to `Cc1c(COc2cc(OCc3cncc(C#N)c3)c(CNC(C)(CO)CO)cc2Cl)cccc1-c1cccc(OCCCN2CC[C@@H](O)C2)c1Cl` [Example 2104, (R)-5-((4-chloro-5-((2′-chloro-3′-(3-(3-hydroxypyrrolidin-1-yl)propoxy)-2-methyl-[1,1′-biphenyl]-3-yl)methoxy)-2-(((1,3-dihydroxy-2-methylpropan-2-yl)amino)methyl)phenoxy)methyl)nicotinonitrile], the IC50 fell in the range of 0.21 to 10 nM.

As to `Cc1c(COc2cc(OCc3cncc(C(=N)N4CC[C@@H](O)C4)c3)c(CNC(C)(CO)CO)cc2Cl)cccc1-c1cccc(OCCCN2CC[C@@H](O)C2)c1Cl` [Example 2105, 2-((5-chloro-4-((2′-chloro-3′-(3-((R)-3-hydroxypyrrolidin-1-yl)propoxy)-2-methyl-[1,1′-biphenyl]-3-yl)methoxy)-2-((5-(((R)-3-hydroxypyrrolidin-1-yl)(imino)methyl)pyridin-3-yl)methoxy)benzyl)amino)-2-methylpropane-1,3-diol], the 50% inhibitory concentration (IC50) lay in the range of 0.21 to 10 nM.

Take `N#Cc1cncc(COc2cc(OCc3cccc(-c4cccc(OCCCN5CC[C@@H](O)C5)c4Cl)c3Cl)c(Cl)cc2CN2CCCC[C@H]2C(=O)O)c1` [Example 2106, (S)-1-(5-chloro-2-((5-cyanopyridin-3-yl)methoxy)-4-((2,2′-dichloro-3′-(3-((R)-3-hydroxypyrrolidin-1-yl)propoxy)-[1,1′-biphenyl]-3-yl)methoxy)benzyl)piperidine-2-carboxylic Acid]: the IC50 lay in the range of 0.21 to 10 nM.

In the case of `CC(CO)(CO)NCc1cc(Cl)c(OCc2cccc(-c3cccc(OCCCN4CC[C@@H](O)C4)c3Cl)c2Cl)cc1OCCC(F)(F)F` [Example 2107, (R)-2-((5-chloro-4-((2,2′-dichloro-3′-(3-(3-hydroxypyrrolidin-1-yl)propoxy)-[1,1′-biphenyl]-3-yl)methoxy)-2-(3,3,3-trifluoropropoxy)benzyl)amino)-2-methylpropane-1,3-diol], the concentration for half-maximal inhibition (IC50) was in the range of 0.21 to 10 nM.

On to `CN(C)CCOc1cc(OCc2cccc(-c3cccc(OCCCN4CC[C@@H](O)C4)c3Cl)c2Cl)c(Cl)cc1CNC(C)(CO)CO` [Example 2108, (R)-2-((5-chloro-4-((2,2′-dichloro-3′-(3-(3-hydroxypyrrolidin-1-yl)propoxy)-[1,1′-biphenyl]-3-yl)methoxy)-2-(2-(dimethylamino)ethoxy)benzyl)amino)-2-methylpropane-1,3-diol], for which the IC50 was 0.21 to 10 nM.

For the compound `COCC(COC)NCc1cc(Cl)c(OCc2cccc(-c3cccc(OCCCN4CC[C@@H](O)C4)c3Cl)c2C)cc1OCc1cncc(C#N)c1` [Example 2109, (R)-5-((4-chloro-5-((2′-chloro-3′-(3-(3-hydroxypyrrolidin-1-yl)propoxy)-2-methyl-[1,1′-biphenyl]-3-yl)methoxy)-2-(((1,3-dimethoxypropan-2-yl)amino)methyl)phenoxy)methyl)nicotinonitrile], the IC50 was 0.21 to 10 nM.

In the case of `Cc1c(COc2cc(OCc3cncc(C#N)c3)c(CNC3(CO)COC3)cc2Cl)cccc1-c1cccc(OCCCN2CC[C@@H](O)C2)c1Cl` [Example 2110, (R)-5-((4-chloro-5-((2′-chloro-3′-(3-(3-hydroxypyrrolidin-1-yl)propoxy)-2-methyl-[1,1′-biphenyl]-3-yl)methoxy)-2-(((3-(hydroxymethyl)oxetan-3-yl)amino)methyl)phenoxy)methyl)nicotinonitrile], the IC50 was 0.21 to 10 nM.

As to `CCN(Cc1cc(Cl)c(OCc2cccc(-c3cccc(OCCCN4CC[C@@H](O)C4)c3Cl)c2C)cc1OCc1cncc(C#N)c1)C(CO)CO` [Example 2111, (R)-5-((4-chloro-5-((2′-chloro-3′-(3-(3-hydroxypyrrolidin-1-yl)propoxy)-2-methyl-[1,1′-biphenyl]-3-yl)methoxy)-2-(((1,3-dihydroxypropan-2-yl)(ethyl)amino)methyl)phenoxy)methyl)nicotinonitrile], the IC50 is 0.21 to 10 nM.

For the origin of these results see patent US10745382B2 (BRISTOL-MYERS SQUIBB COMPANY, priority 2015, dated 2020).
